Measured values published in patent US20240199612A1, “IMIDAZOPYRIDINYL INHIBITORS OF PLASMA KALLIKREIN” (SHIRE HUMAN GENETIC THERAPIES, INC., priority 2021, published 2024).

Legend:
[1] = biological target: human activated kallikrein enzyme (Homo sapiens, UniProt P03952); assay: Inhibition of human activated plasma kallikrein, fluorogenic peptide substrate (PFR-AMC) assay, 500 pM enzyme format; format: biochemical; settings: format with 500 pM activated kallikrein, 300 uM PFR-AMC, 30 min preincubation, 10 min reaction, room temperature; read-out: Primary Dose Response Assay: Average EC50
Chain of human activated kallikrein enzyme (P03952 391-638 limits assumed): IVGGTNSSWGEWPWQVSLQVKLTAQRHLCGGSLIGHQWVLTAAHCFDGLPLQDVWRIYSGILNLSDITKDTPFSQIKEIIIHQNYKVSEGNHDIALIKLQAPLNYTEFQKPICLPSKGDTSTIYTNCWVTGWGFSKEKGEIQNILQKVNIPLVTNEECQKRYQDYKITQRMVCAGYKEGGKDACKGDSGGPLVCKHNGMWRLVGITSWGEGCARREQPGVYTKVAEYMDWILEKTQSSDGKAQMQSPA
Chain of human activated kallikrein enzyme (P03952 20-390 partner limits assumed): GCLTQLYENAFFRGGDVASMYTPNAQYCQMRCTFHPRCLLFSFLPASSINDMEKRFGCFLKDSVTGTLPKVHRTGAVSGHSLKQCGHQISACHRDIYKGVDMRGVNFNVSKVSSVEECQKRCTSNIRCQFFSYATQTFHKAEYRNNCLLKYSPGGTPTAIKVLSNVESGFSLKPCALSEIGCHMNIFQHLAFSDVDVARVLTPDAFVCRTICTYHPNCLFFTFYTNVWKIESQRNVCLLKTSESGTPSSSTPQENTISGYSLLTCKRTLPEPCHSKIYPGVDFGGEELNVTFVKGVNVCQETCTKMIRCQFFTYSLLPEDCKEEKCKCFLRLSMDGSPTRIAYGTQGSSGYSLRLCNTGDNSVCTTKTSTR
Description: Inhibitory Activity of Exemplary Compounds against Plasma Kallikrein.
Compounds were evaluated for inhibition of the human activated kallikrein enzyme in two formats of an assay employing a fluorogenic peptide substrate. In one assay format, the concentrations of reagents were as follows: 20 mM Tris pH 7.5, 1 mM EDTA, 150 mM sodium chloride, 0.1% PEG-400, 0.1% Triton X-100, 500 pM activated kallikrein enzyme, 300 uM Pro-Phe-Arg-7-amido-4-methylcoumarin (PFR-AMC) substrate. Prior to reaction initiation with substrate, enzyme and inhibitors were preincubated for 30 min at room temperature. After initiation with substrate, reactions were incubated for 10 min at room temperature and fluorescence emission at 460 nm from 380 nm excitation measured with a microplate reader. In another assay format, the concentrations of reagents were as follows: 20 mM Tris pH 7.5, 1 mM EDTA, 150 mM sodium chloride, 0.1% PEG-400, 0.1% Triton X-100, 5 pM activated kallikrein enzyme, 300 uM PFR-AMC substrate. Prior to reaction initiation with substrate, enzyme and inhibitors were preincubated for 30 min at room temperature. After initiation with substrate, reactions were incubated for 18 hr at room temperature and fluorescence emission at 460 nm from 380 nm excitation measured with a microplate reader.

[2] = biological target: T1, plasma kallikrein (Homo sapiens, UniProt P03952); assay: Neat human plasma assay (contact pathway-activated plasma, FXIIa, PFR-AMC substrate); format: biochemical; settings: sodium citrate human plasma, 78% final plasma, 10 nM human FXIIa, 100 μM PFR-AMC, room temperature
T1 construct: from tissue; host or cells: sodium citrate collected human plasma (78% final)
T1 sequence (P03952 391-638 limits assumed): as the sequence (P03952 391-638 limits assumed) above
T1 sequence (P03952 20-390 partner limits assumed): as the sequence (P03952 20-390 partner limits assumed) above
Description: Neat Human and Rat Plasma Assay
To analyze inhibition of plasma kallikrein in an ex vivo setting, the potency of compounds was measure in contact pathway-activated plasma assays. In a fluorogenic peptide substrate assay, test compounds dissolved in DMSO were added to sodium citrate collected human or rat plasma in a 96-well microplate. Alternatively, citrated plasma was collected from rats administered the compounds orally or by IV. 10 nM of human FXIIa (Enzyme Research Laboratories) diluted in PKa buffer (20 mM Tris-HCl, pH 7.5, 150 mM NaCl, 1 mM EDTA, 0.1% PEG-8000, and 0.1% Triton X-100) was added to the plasma, followed by the 100 μM of the profluorescent, synthetic plasma kallikrein substrate PFR-AMC (also diluted in PKa buffer). Final plasma concentration in the reaction was 78%. Fluorescence was immediately monitored by excitation/emission wavelengths of 360 nm/480 nm respectively over a period of 5 minutes in a microplate reader. The resulting linear increase in fluorescence emission (reflecting PKa proteolysis of PFR-AMC substrate) was fit to extract a proteolytic rate (fluorescent units over time), and this rate was subsequently plotted against compound inhibitor concentration. Resulting plots were fit to a standard 4-parameter IC50/IC90 equation to determine min/max values, IC50/90, and slope. All experimental steps were performed at room temperature.

EC50 [1] | IC90 [2] | SMILES
< 5 nM | 2500 to 7500 nM | CC(OC(=O)Nc1cc(NCc2cn3cc(C4CC4)ccc3n2)ccn1)c1cccc(Cl)c1 (stereo not drawn) [Compound I-15, 1-(3-chlorophenyl)ethyl (4-(((6-cyclopropylimidazo[1,2-a]pyridin-2-yl)methyl)amino)pyridin-2-yl)carbamate]
< 5 nM | ≤ 2500 nM | O=C(Nc1cc(NCc2cn3cc(C4CC4)ccc3n2)ncn1)OCc1cc(Cl)ccn1 [Compound I-26, (4-chloropyridin-2-yl)methyl (6-(((6-cyclopropylimidazo[1,2-a]pyridin-2-yl)methyl)amino)pyrimidin-4-yl)carbamate]
< 5 nM | 2500 to 7500 nM | O=C(Nc1cc(NCc2cn3cc(C4CC4)ccc3n2)ccn1)OCc1cc(Cl)ccc1-n1cnnn1 [Compound I-11, 5-chloro-2-(1H-tetrazol-1-yl)benzyl (4-(((6-cyclopropylimidazo[1,2-a]pyridin-2-yl)methyl)amino)pyridin-2-yl)carbamate]
< 5 nM | 7500 to 15000 nM | O=C(Nc1cc(NCc2cn3cc(C4CC4)ccc3n2)ccn1)OCc1cccc(Cl)c1 [Compound I-13, 3-chlorobenzyl (4-(((6-cyclopropylimidazo[1,2-a]pyridin-2-yl)methyl)amino)pyridin-2-yl)carbamate]
< 5 nM | 2500 to 7500 nM | CC(OC(=O)Nc1cc(NCc2cn3cc(C4CC4)ccc3n2)ccn1)c1cc(Cl)ccc1-n1cnnn1 (stereo not drawn) [Compound I-21, 1-(5-chloro-2-(1H-tetrazol-1-yl)phenyl)ethyl (4-(((6-cyclopropylimidazo[1,2-a]pyridin-2-yl)methyl)amino)pyridin-2-yl)carbamate]
< 5 nM | 2500 to 7500 nM | O=C(NCc1cc(Cl)ccc1-n1cnnn1)Nc1cc(NCc2cn3cc(C4CC4)ccc3n2)ccn1 [Compound I-10, 1-(5-chloro-2-(1H-tetrazol-1-yl)benzyl)-3-(4-(((6-cyclopropylimidazo[1,2-a]pyridin-2-yl)methyl)amino)pyridin-2-yl)urea]
